Measurements from ChEMBL document CHEMBL3045529, “A rational design, synthesis, characterization, and antihypertensive activities of some new substituted benzimidazoles” (2013).

Tested on: Cavia porcellus
Experiment: Antihypertensive activity in Cavia porcellus (guinea pig) assessed as decrease in systolic blood pressure at 3 mg/kg, iv relative to control
Format: functional, Artery

| Compound | Activity [mmHg] |
| --- | --- |
| CCCCc1nc2cc([N+](=O)[O-])ccc2n1Cc1ccc(-c2ccccc2-c2nnn[nH]2)cc1 | 15 |
| CCCCc1nc2cc(N)ccc2n1Cc1ccc(-c2ccccc2-c2nnn[nH]2)cc1 | 19 |
| CCCCc1nc2cc(NC(C)=O)ccc2n1Cc1ccc(-c2ccccc2-c2nnn[nH]2)cc1 | 22 |
| CCCCc1nc2cc(NC(=O)c3ccccc3)ccc2n1Cc1ccc(-c2ccccc2-c2nnn[nH]2)cc1 | 28 |
| C/C=N/c1ccc2c(c1)nc(CCCC)n2Cc1ccc(-c2ccccc2-c2nnn[nH]2)cc1 | 27 |
| CC/C=N/c1ccc2c(c1)nc(CCCC)n2Cc1ccc(-c2ccccc2-c2nnn[nH]2)cc1 | 18 |
| CCC/C=N/c1ccc2c(c1)nc(CCCC)n2Cc1ccc(-c2ccccc2-c2nnn[nH]2)cc1 | 17 |
| CCCC/C=N/c1ccc2c(c1)nc(CCCC)n2Cc1ccc(-c2ccccc2-c2nnn[nH]2)cc1 | 27 |
| CCCCC/C=N/c1ccc2c(c1)nc(CCCC)n2Cc1ccc(-c2ccccc2-c2nnn[nH]2)cc1 | 25 |
| CCCCc1nc2cc(NC)ccc2n1Cc1ccc(-c2ccccc2-c2nnn[nH]2)cc1 | 12 |
| CCCCc1nc2cc(N(C)C)ccc2n1Cc1ccc(-c2ccccc2-c2nnn[nH]2)cc1 | 29 |
| CCCCc1nc2cc(NCC)ccc2n1Cc1ccc(-c2ccccc2-c2nnn[nH]2)cc1 | 29 |
| CCCCc1nc2cc(N(CC)CC)ccc2n1Cc1ccc(-c2ccccc2-c2nnn[nH]2)cc1 | 33 |
| CCCCc1nc2cc(NCCC)ccc2n1Cc1ccc(-c2ccccc2-c2nnn[nH]2)cc1 | 32 |
| CCCCNc1ccc2c(c1)nc(CCCC)n2Cc1ccc(-c2ccccc2-c2nnn[nH]2)cc1 | 31 |
| CCCCc1nc2cc(NCc3ccccc3)ccc2n1Cc1ccc(-c2ccccc2-c2nnn[nH]2)cc1 | 31 |
| CCCCc1nc(Cl)c(CO)n1Cc1ccc(-c2ccccc2-c2nnn[nH]2)cc1 [LOSARTAN] | 34 |
